For one data set, the target named is PSMA receptor. The conditions noted are these: cited from earlier work. From the text: Prostate-specific membrane antigen (PSMA) is a type II transmembrane protein that is overexpressed (by 100–1000 fold) by virtually all prostate cancers. PSMA expression is further increased in poorly differentiated, metastatic, hormone-refractory carcinomas and in cancer cells from castration-resistant prostate cancer patients. Increased PSMA expression is correlated with the risk of early prostate cancer recurrence after radical prostatectomy. […] BIND014 increased intr ...

The subject of data set [1] is PSMA-positive PC3pip cells. Briefly: In vitro cytotoxicity assay (CCK-8), PC3pip. The class given is cell-based, human. The protocol: (§1) Cells (1000/well) were seeded in 96-well culture plates the day before treatment.
For data set [2], the system named is PSMA-negative PC3flu cells. Briefly: In vitro cytotoxicity assay (CCK-8), PC3flu. The class given is cell-based, human. The conditions noted are these: 72 h incubation, CCK-8; mean ± SD. The protocol: as §1
Data set [3] has as its system tumor-free athymic nude mice. Briefly: Maximum tolerated dose, single i.v. dose. The class given is in vivo, mouse. The conditions noted are these: male nude mice, 3 per dose group, 14 days, 20% body weight loss or overt toxicity as end point. The source says: Mice were monitored daily for 14 days.
The subject of data set [4] is heterotopic PC3pip tumors. Kind of data set: Heterotopic PC3pip tumor survival study. The class given is in vivo. On the procedure: Male athymic nude mice were implanted subcutaneously with 1 × 10^6 of PC3pip cells 100 μL of matrigel. When tumor size reached approximately 100 mm^3 (tumor volume = Length × width^2/2), mice received drugs through tail vein injection every 4 days with a total of five doses. Mice were treated every 4 days with a total of five doses. Animals were weighed and tumor size measured every other day for 90 days. Cures were defined as no tumor present at end of the 90-day study. When tumors became too large or animals were moribund they were euthanized. Five mice were used in each group.

The next data set concerns the target T1, human liver cathepsin B (Homo sapiens, UniProt P07858).
T1 construct: purchased Anthens Research and Technology, Anthens, AL, USA (so in the source); host or cells: human liver (tissue-derived enzyme)
Briefly: Enzymatic cleavage by cathepsin B, HPLC analysis. The class given is in vitro ADME. As to conditions: activated human liver cathepsin B, 2 μM conjugate, 37 °C, triplicate. On the procedure:
(§2) Cathepsin is a prevalent protease that PSMA internalized ligands will encounter as they enter into late endosomes/lysosomes. To investigate if PSMA-targeted drug conjugates were cleavable by cathepsin B, the two conjugates were incubated with or without cathepsin protease and chromatographed by high performance liquid chromatography (HPLC).
(§3) At different time intervals, 40 μL of the solution was taken out into tubes loaded with 1 μL of 1 mM E64 protease inhibitor. […] Studies were performed in triplicate.

Data set [5] is described as follows: Stability on incubation in PBS (without cathepsin), HPLC. The class given is in vitro ADME. The conditions noted are these: incubation with PBS without cathepsin, triplicate. On the procedure:
as §2, §3

Data set [6] has as its system PSMA-negative PC3flu cells. Kind of data set: In vitro cellular uptake (confocal fluorescence), PC3flu. The class given is cell-based, human. The conditions noted are these: 50 nM conjugate, 4 h, 37 °C, confocal microscopy. The protocol: Figure 2 In vitro fluorescence studies of PSMA-1-MMAE-Cy5.5 conjugates. In vitro cellular uptake results of PSMA-targeted drug conjugates. Cells were incubated with 50 nM of drug conjugates for 4 h. Nuclei were stained by DAPI and are false colored blue, lysosomes were detected by LysoOrange and are false colored green, and drug conjugates are false colored red. Selective uptake was observed only in PC3pip cells and the conjugates were mainly located in lysosomes. Specificity of drug conjugates for PSMA binding was evaluated by including 1 mM of unlabeled PSMA-1 ligand during incubations. […] Images are taken at 40×. Representative images are shown from three independent experiments.
PC3pip and PC3flu cells were seeded in µ-Slide 8-Well Chamber Slide (ibidi GmbH, Munich, Germany) at 2000 cells/well. […] Cells were washed with PBS and stained with DAPI and LysoOrange (Abcam Inc., Cambridge, UK) for 30 min at 37 °C and 5% CO2, after which they were washed again with PBS and fresh medium added. Selectivity was determined by including 20-fold excess of the PSMA-1 ligand. The uptake and localization of the drug conjugates were visualized under a confocal microscope (Leica Biosystem, Wetzlar, Germany) at 40×.

The test system of data set [7] is α-tubulin in PC3pip cells. Kind of data set: Immunofluorescence analysis of alpha-tubulin, PC3pip. The class given is cell-based, human. The conditions noted are these: 5 nM, 24 h, Alexa Fluor 488 α-tubulin antibody. The protocol:
(§4) Cells were washed and fixed with 4% paraformaldehyde for 10 min, permeabilized with 0.1% Triton™ X-100 for 10 min, and blocked with 1% BSA for 1 h at room temperature. Alpha-tubulin (B5-1-2) Alexa Fluor 488 Mouse Monoclonal Antibody (Invitrogen) was then added at 2 µg/mL in 0.1% BSA and incubated for 3 h at room temperature. Cells were counterstained with DAPI, mounted with Fluor-Mount aqueous mounting solution, and observed under Leica DM4000B fluorescence microscopy at 40×.

Data set [8] deals with α-tubulin in PC3flu cells. Briefly: Immunofluorescence analysis of alpha-tubulin, PC3flu. The class given is cell-based, human. The conditions noted are these: 5 nM, 24 h, Alexa Fluor 488 α-tubulin antibody. On the procedure: as §4
The test system of data set [9] is heterotopic PC3pip and PC3flu tumors. Briefly: In vivo NIR fluorescence imaging, mice bearing PC3pip and PC3flu tumors. Details: species or system mouse. The conditions noted are these: 40 nmol/kg i.v., 24-h post-injection, n = 5. The protocol:
Under guidelines of the animal care and use committee at Case Western Reserve University (IACUC#150033) 6–8-week old male Balb/c athymic nude mice were implanted subcutaneously with 1 × 10^6 of PC3flu and PC3pip in 100 μL of matrigel on the left and right flank, respectively. […] Fluorescence imaging was performed using the Maestro In Vivo Imaging system (Perkin-Elmer Inc., Waltham, MA, USA). At 72-h post injection, mice were euthanized, tumor and organs were extracted for ex vivo imaging. Tumors were snap-frozen in OCT, cut into 10 μm thick sections and fixed on slides. The fluorescence signal from cy5.5 was observed under a Leica DM4000B microscope.

Data set [10] is described as follows: In vitro cytotoxicity assay (CCK-8), PC3pip. The class given is cell-based, human. The protocol: as §1
Data set [11] has as its system heterotopic PC3pip tumors. Briefly: Heterotopic PC3pip tumor survival study. The class given is in vivo. As to conditions: 160 nmol/kg, tumors extracted on day 4, compared with PSMA-1-McMMAE-Cy5.5.
[12] abbreviates: 72 h incubation, CCK-8, mean ± SD.
Setting [13] is: 160 nmol/kg i.v. every 4 days, five doses, n = 5.

Where two headings read alike, the source gives them in different places. *1 amine or outer side, *2 acyl side, *3 side chain or, on linkers, in order; H or OH if unused. Where a SMILES comes first, the peptide text is derived from it. Bridges are numbered along the chain shown (N, C = ends). Roman numbers before positions name the chains, in order. [ ]: non-standard residue; d: D form. The star is where a group is joined. X3 = CN1/C(=C/C=C/C=C/C2=[N+](CCCCCC(=O)*)c3ccc4ccccc4c3C2(C)C)C(C)(C)c2c1ccc1ccccc21; Dolaproine = CO[C@@H]([C@@H]1CCCN1)[C@@H](C)C(=O)O; Dil = CC[C@H](C)[C@H](NC)[C@@H](CC(=O)O)OC; X4 = O=C1CC([*:2])C(=O)N1CCCCCC(=O)[*:1]; γGlu = O=C(O)[C@H](CCC(=O)[*:2])N[*:1]; PABC = O=C(OCc1ccc(N[*:1])cc1)[*:2]; X2 = C[C@@H](N*)[C@@H](O)c1ccccc1; Trx = NC[C@H]1CC[C@H](C(=O)O)CC1; Cit = NC(=O)NCCC[C@H](N)C(=O)O; NMeV = CN[C@H](C(=O)O)C(C)C; CO = O=C([*:1])[*:2]; Ahx = NCCCCCC(=O)O

A word on the Ki: it is a measure of affinity in units of concentration, obtained from inhibition or displacement. As to `O=C(O)CCC(NC(=O)NC(CCC(=O)O)C(=O)O)C(=O)O` (stereo not drawn) [DUPA, 2-(3-(1,3-dicarboxypropyl)-ureido) pentanedioic acid], at PSMA receptor (read-out: Ki to PSMA receptor (DUPA)), the Ki was 8 nM.
The EC50 is the concentration that produces a half-maximal response. `CC[C@H](C)[C@@H]([C@@H](CC(=O)N1CCC[C@H]1[C@H](OC)[C@@H](C)C(=O)N[C@H](C)[C@@H](O)c1ccccc1)OC)N(C)C(=O)[C@@H](NC(=O)[C@@H](NC)C(C)C)C(C)C` [MMAE, monomethyl auristatin E, reference compound] (H-[NMeV]V[Dil][Dolaproine]-X2): the EC50 in data set [1] (setting [12]) stood at 0.24 ± 0.05 nM; in [2], 0.21 ± 0.04 nM. Also, the “selectivity, differential cytotoxicity ratio between PC3pip and PC3flu cells” value in data set [1] (more potent for PC3pip than PC3flu) was “no selectivity”. Besides, the “maximum tolerated dose (MTD)” value in data set [3] is reported as 700 nmol/kg. Moreover, in data set [4] (setting [13]), the “tumor growth (in words), 160 nmol/kg” value is recorded as “did not show any antitumor activity”. Further, the therapeutic index in data set [4] (MTD/effective dose) is on record as 1. For the same molecule, the “lowest dose to effectively inhibit tumor growth” value in [4] (i.v. every 4 days, five doses, tumor growth inhibited for 30 days, n = 5) is 700 nmol/kg.
Take `CC[C@H](C)[C@@H]([C@@H](CC(=O)N1CCC[C@H]1[C@H](OC)[C@@H](C)C(=O)N[C@H](C)[C@@H](O)c1ccccc1)OC)N(C)C(=O)[C@@H](NC(=O)[C@H](C(C)C)N(C)C(=O)CCCCCN1C(=O)CC(SC[C@H](NC(=O)[C@@H](CCC(=O)O)NC(=O)[C@@H](CCC(=O)O)NC(=O)[C@@H](CCC(=O)O)NC(=O)CCCCCNC(=O)[C@H]2CC[C@H](CNC(=O)CC[C@H](NC(=O)N[C@@H](CCC(=O)O)C(=O)O)C(=O)O)CC2)C(=O)NCCCCCC(=O)N[C@@H](CCCCNC(=O)CCCCC[N+]2=C(/C=C/C=C/C=C3/N(C)c4ccc5ccccc5c4C3(C)C)C(C)(C)c3c2ccc2ccccc32)C(N)=O)C1=O)C(C)C` (stereo partly drawn) [PSMA-1-McMMAE-Cy5.5]: the “cleavage by cathepsin B (in words)” value in the data set with human liver cathepsin B is reported as “remained intact”. Further, the “stability in PBS (in words)” value in [5] is recorded as “stable”. The “cellular uptake, fluorescence in PC3flu cells (in words)” value in [6] is “no fluorescence signal was observed”. For the same molecule, the “disruption of α-tubulin in PC3pip cells (in words)” value in data set [7] was “no apparent disruption of tubulin”. Also, the “disruption of α-tubulin in PC3flu cells (in words)” value in data set [8] is on record as “no apparent disruption of tubulin”. The “EC50, cytotoxicity to PC3pip cells” value in data set [1] (setting [12]) is given as “no EC50 values could be obtained”. Besides, the “EC50, cytotoxicity to PC3flu cells” value in data set [2] was “no EC50 values could be obtained”. Further, the “uptake in PSMA-negative PC3flu tumors (in words)” value in [9] was “little to no detectable uptake”.
On to `CC[C@H](C)[C@@H]([C@@H](CC(=O)N1CCC[C@H]1[C@H](OC)[C@@H](C)C(=O)N[C@H](C)[C@@H](O)c1ccccc1)OC)N(C)C(=O)[C@@H](NC(=O)[C@H](C(C)C)N(C)C(=O)OCc1ccc(NC(=O)[C@H](CCCNC(N)=O)NC(=O)[C@@H](NC(=O)CCCCCN2C(=O)CC(SC[C@H](NC(=O)[C@@H](CCC(=O)O)NC(=O)[C@@H](CCC(=O)O)NC(=O)[C@@H](CCC(=O)O)NC(=O)CCCCCNC(=O)[C@H]3CC[C@H](CNC(=O)CC[C@H](NC(=O)N[C@@H](CCC(=O)O)C(=O)O)C(=O)O)CC3)C(=O)NCCCCCC(=O)N[C@@H](CCCCNC(=O)CCCCC[N+]3=C(/C=C/C=C/C=C4/N(C)c5ccc6ccccc6c5C4(C)C)C(C)(C)c4c3ccc3ccccc43)C(N)=O)C2=O)C(C)C)cc1)C(C)C` (stereo partly drawn) [PSMA-1-VcMMAE-Cy5.5] (I: V[Cit][PABC][NMeV]V[Dil][Dolaproine]-X2 / II: {Glu-CO-γGlu-Trx-Ahx}-[dE][dE][dE]C[Ahx]K(X3)-NH2; linker I:N-II:4 via X4), for which, in the data set with human liver cathepsin B, the “cleavage by cathepsin B (in words)” value is “degraded rapidly” and the “half-life in the presence of cathepsin” value worked out at 19.8 min. Also, the “stability in PBS (in words)” value in [5] is “stable”. The “cellular uptake, fluorescence in PC3flu cells (in words)” value in data set [6] was “no fluorescence signal was observed”. In data set [7], the “disruption of α-tubulin in PC3pip cells (in words)” value is recorded as “selective tubulin disruption”. In addition, the “disruption of α-tubulin in PC3flu cells (in words)” value in [8] is “no obvious changes in α-tubulin structure”. Besides, in data set [10] (72 h, CCK-8, in the presence of protease inhibitor E64 (50 μM given for the Cy5.5 conjugates), read-out: EC50, cytotoxicity to PC3pip cells + E64), the EC50 turned out to be 3.66 nM. Further, the 50% effective concentration (EC50) in data set [10] (72 h incubation, CCK-8, mean ± SD, read-out: EC50, cytotoxicity to PC3pip cells) worked out at 0.84 nM. For the same molecule, the “uptake in PSMA-negative PC3flu tumors (in words)” value in [9] is given as “little to no detectable uptake”. In addition, in data set [4] (setting [13]), the “cures (tumor-free mice at end of 90-day study), 160 nmol/kg” value is 3/5 and three out of five; the “tumor growth (in words), 160 nmol/kg” value is given as “effectively inhibited tumor growth”. Further, the “cures, lower dose group of Figure S4B” value in data set [4] (dose group not printed beside the label, i.v. every 4 days, five doses, n = 5) is 1/5. Besides, the “apoptosis, caspase 3 staining of tumors (in words)” value in data set [11] is “significantly more apoptosis”.
Regarding `NCCCC[C@H](NC(=O)N[C@@H](CCC(=O)O)C(=O)O)C(=O)O` [ZJ24, (S)-2-(3-((S)-5-amino-1-carboxypentyl)ureido) pentanedioic acid], the inhibition constant (Ki) at PSMA receptor (read-out: Ki to PSMA (ZJ24)) was 0.3 nM.

Values taken from paper PMC7865627, “Small Molecule-Based Prodrug Targeting Prostate Specific Membrane Antigen for the Treatment of Prostate Cancer” (Cancers, 2021).
